The values that follow come from patent US11219625B2, “Inhibitors of N-linked glycosylation and methods using same” (YALE UNIVERSITY, priority 2015, dated 2022).

The target of the assay is T1, OST (Canis lupus familiaris, UniProt F1PJP5).
T1 construct: rabbit reticulocyte lysate translation system supplemented with canine pancreas rough microsomes (cRM); from tissue; host or cells: canine pancreas rough microsomes
T1 sequence (F1PJP5 1-705): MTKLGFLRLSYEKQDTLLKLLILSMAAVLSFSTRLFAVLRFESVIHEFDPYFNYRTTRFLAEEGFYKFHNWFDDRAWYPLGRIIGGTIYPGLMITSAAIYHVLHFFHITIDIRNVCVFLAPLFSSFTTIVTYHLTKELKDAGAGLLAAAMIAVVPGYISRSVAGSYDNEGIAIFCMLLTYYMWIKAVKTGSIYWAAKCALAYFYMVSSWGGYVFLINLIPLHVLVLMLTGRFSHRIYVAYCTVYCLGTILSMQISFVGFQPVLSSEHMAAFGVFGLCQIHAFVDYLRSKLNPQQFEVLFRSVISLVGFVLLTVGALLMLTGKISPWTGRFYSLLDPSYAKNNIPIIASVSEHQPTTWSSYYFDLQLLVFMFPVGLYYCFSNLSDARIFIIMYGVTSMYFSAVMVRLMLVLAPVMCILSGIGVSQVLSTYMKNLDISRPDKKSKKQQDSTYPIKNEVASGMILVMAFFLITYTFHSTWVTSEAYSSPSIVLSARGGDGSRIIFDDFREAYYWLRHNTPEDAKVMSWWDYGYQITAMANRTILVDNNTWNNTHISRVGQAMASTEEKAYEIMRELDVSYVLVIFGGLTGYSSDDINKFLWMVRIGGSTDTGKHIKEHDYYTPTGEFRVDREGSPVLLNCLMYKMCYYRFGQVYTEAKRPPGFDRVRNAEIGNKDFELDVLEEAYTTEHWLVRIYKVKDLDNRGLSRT
Nature of the assay: Cell free OST inhibition, canine pancreas microsomes with in vitro translation of pSAP mRNA. Type of assay: biochemical. Particulars: FIG. 2D. As for the experimental part: FIGS. 2A-2I illustrate the finding that NGI-1 blocks OST function. FIG. 2A illustrates the western blots of glycosylated luciferase (Luc) after treatment with 1 μM tunicmaycin (Tn) and 10 μM NGI-1 in CHO-Lec15 and CHO-Lec35 cells with stable expression of ER-LucT. FIG. 2B is a […] illustrating FACE analysis of lipid linked oligosaccharides (LLOs). FIG. 2C is a series of western blots illustrating the effects of NGI-1 (5 μM) on free oligosaccharides (left panel) and N-linked glycans cleaved from peptides with Peptide-N-Glycosidase F (right panel). Carbohydrate size is indicated with glucose markers (G4-G7). FIG. 2D is a western blot illustrating cell free inhibition of the OST using a rabbit reticulocyte lysate translation system supplemented with canine pancreas rough microsomes (cRM). […] FIGS. 2G-2H: Dose response and quantitation of NGI-1 effect on pSAP (squares) and SHBG glycosylation (circles). […]
The OST is an ER resident multi-subunit complex that cleaves LLOs and transfers the oligosaccharide to a protein encoded N-linked glycosylation consensus sequence (NXT/S). […] Both enzymatic products of the OST, free glycans and protein glycans, were therefore determined with and without NGI-1 treatment using optimized conditions in streptolysin-O permeabilized CHO cells (FIG. 2C). […]

For `Cc1cnc(NC(=O)c2cc(S(=O)(=O)N(C)C)ccc2N2CCCC2)s1` [NGI-1, 5-(N,N-Dimethylsulfamoyl)-N-(5-methylthiazol-2-yl)-2-(pyrrolidin-1-yl)benzamide], the “inhibition of pSAP N-linked glycosylation, cell free” value is reported as “dose dependent inhibition of pSAP N-linked glycosylation”.
